The source made the active and inactive calls. The rule behind the calls is not given here.
Assays:
[1] = Half life in mouse at 10 mg/kg, po; assay type: ADME, organism-based; conditions: in vivo
[2] = AUC(0 to infinity) in mouse at 1 mg/kg, iv; assay type: ADME, organism-based; parameters: route intravenous, time infinity, dose 1 mg/kg; conditions: in vivo
[3] = target: Dual specificity protein kinase CLK2 (Homo sapiens, UniProt P49760); test: Inhibition of CLK2 (unknown origin) in presence of 1 mM ATP with preincubation
[4] = target: Glycogen synthase kinase-3 alpha (Homo sapiens, UniProt P49840); test: Inhibition of GSK3alpha (unknown origin) in presence of 1 mM ATP with preincubation
[5] = MRT in rat at 2 mg/kg, iv; assay type: ADME, organism-based; conditions: in vivo
[6] = Metabolic stability in mouse liver microsomes assessed as parent compound remaining after 30 mins; assay type: ADME, Microsome; conditions: liver microsomes, read-out: Stability
[7] = target: T1, Cell division cycle 7-related protein kinase (Homo sapiens, UniProt O00311); test: Reversible inhibition of human CDC7 assessed as off-rate preincubated for 50 mins followed by substrate addition in presence of ATP by rapid dilution assay
Target sequence in this assay (O00311 whole entry, looked up): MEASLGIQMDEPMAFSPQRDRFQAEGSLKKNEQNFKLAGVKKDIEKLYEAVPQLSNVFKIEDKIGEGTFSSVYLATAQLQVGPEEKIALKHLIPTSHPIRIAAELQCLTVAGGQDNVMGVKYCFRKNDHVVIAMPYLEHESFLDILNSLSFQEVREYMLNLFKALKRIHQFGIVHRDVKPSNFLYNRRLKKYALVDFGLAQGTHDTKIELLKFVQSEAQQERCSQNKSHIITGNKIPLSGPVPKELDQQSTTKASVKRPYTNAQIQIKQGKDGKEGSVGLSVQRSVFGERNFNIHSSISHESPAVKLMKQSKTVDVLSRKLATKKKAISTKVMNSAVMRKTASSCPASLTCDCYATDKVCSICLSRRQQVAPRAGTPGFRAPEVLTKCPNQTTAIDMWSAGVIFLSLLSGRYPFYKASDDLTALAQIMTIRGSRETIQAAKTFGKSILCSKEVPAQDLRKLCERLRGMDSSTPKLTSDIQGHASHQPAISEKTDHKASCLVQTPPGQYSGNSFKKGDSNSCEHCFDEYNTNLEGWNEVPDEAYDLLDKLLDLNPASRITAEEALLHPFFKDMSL

[8] = Apparent permeability across apical to basolateral side in human Caco-2 cells; assay type: ADME, cell-based
[9] = target: T1, Cell division cycle 7-related protein kinase; test: Inhibition of CDC7 in human COLO 205 cells assessed as reduction in phosphorylation of MCM2 at 1 uM preincubated for 48 hrs followed by compound washout measured after 24 hrs by Western blot analysis; assay type: cell-based
Target sequence in this assay (O00311 whole entry, looked up): as above

[10] = system: SW-620; test: Induction of apoptosis in human SW-620 cells assessed as increase in cleaved PARP level incubated for 48 hrs by Western blot analysis; assay type: functional, cell-based; conditions: dose 0.03-1 µM
[11] = target: T2, Dual specificity protein kinase CLK1 (Homo sapiens, UniProt P49759); test: Inhibition of CLK1 (unknown origin) in presence of 1 mM ATP without preincubation
Target sequence in this assay (P49759 whole entry): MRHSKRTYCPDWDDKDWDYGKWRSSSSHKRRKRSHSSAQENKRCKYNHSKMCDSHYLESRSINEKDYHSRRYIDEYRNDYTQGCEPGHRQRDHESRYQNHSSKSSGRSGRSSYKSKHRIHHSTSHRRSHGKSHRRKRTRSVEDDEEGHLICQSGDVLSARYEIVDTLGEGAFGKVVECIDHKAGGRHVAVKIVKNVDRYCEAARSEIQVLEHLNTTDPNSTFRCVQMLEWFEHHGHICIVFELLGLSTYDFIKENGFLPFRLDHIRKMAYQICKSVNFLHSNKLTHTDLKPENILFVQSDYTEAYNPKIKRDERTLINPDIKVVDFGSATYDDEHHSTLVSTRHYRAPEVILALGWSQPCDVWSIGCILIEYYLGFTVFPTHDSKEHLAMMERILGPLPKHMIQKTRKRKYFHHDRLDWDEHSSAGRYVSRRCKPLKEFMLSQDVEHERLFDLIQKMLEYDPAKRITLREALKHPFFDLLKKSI

[12] = Half life in rat at 2 mg/kg, iv; assay type: ADME, organism-based; conditions: in vivo
[13] = Half life in dog at 2 mg/kg, po; assay type: ADME, organism-based, Canis lupus familiaris; conditions: in vivo
[14] = target: T2, Dual specificity protein kinase CLK1; test: Inhibition of CLK1 (unknown origin) at 0.1 uM in presence of 1 mM ATP relative to control
Target sequence in this assay (P49759 whole entry, looked up): as the sequence (P49759 whole entry) above

[15] = target: T1, Cell division cycle 7-related protein kinase; test: Inhibition of CDC7 in human SW-620 cells assessed as reduction in phosphorylation of MCM2 at Ser53 residue incubated for 48 hrs by Western blot analysis; assay type: cell-based
[16] = species: Homo sapiens; test: Selectivity index, ratio of IC50 for CLK1 (unknown origin) in presence of 1 mM ATP without preincubation to IC50 for CLK1 (unknown origin) in presence of 1 mM ATP with preincubation
[17] = Cmax in dog at 2 mg/kg, po; assay type: ADME, organism-based, Canis lupus familiaris; parameters: route oral, dose 2 mg/kg; conditions: in vivo
[18] = system: SW-620; test: Antitumor activity against human SW-620 cells xenografted in BALB/c nude mouse assessed as tumor growth inhibition at 60 mg/kg, po administered as 4 days on and 2 days off schedule for 21 days; assay type: functional; conditions: SW-620, po, 504 h, time 21 day, read-out: TGI
[19] = In vivo inhibition of CDC7 in human SW-620 cells xenografted in BALB/c nude mouse assessed as reduction in phosphorylation of MCM2 at Ser53 residue at 120 mg/kg, po measured after 8 hrs; assay type: functional; conditions: SW-620, po
[20] = Oral bioavailability in dog at 2 mg/kg; assay type: ADME, organism-based, Canis lupus familiaris; conditions: in vivo
[21] = Clearance in dog at 1 mg/kg, iv; assay type: ADME, organism-based, Canis lupus familiaris; conditions: in vivo
[22] = Metabolic stability in rat liver microsomes assessed as parent compound remaining after 30 mins; assay type: ADME, Microsome; conditions: read-out: Stability
[23] = system: SW-620; test: Induction of apoptosis in human SW-620 cells assessed as increase in cleaved caspase 3 level incubated for 48 hrs by Western blot analysis; assay type: functional, cell-based; conditions: dose 0.03-1 µM

Chain of Glycogen synthase kinase-3 alpha (P49840 whole entry): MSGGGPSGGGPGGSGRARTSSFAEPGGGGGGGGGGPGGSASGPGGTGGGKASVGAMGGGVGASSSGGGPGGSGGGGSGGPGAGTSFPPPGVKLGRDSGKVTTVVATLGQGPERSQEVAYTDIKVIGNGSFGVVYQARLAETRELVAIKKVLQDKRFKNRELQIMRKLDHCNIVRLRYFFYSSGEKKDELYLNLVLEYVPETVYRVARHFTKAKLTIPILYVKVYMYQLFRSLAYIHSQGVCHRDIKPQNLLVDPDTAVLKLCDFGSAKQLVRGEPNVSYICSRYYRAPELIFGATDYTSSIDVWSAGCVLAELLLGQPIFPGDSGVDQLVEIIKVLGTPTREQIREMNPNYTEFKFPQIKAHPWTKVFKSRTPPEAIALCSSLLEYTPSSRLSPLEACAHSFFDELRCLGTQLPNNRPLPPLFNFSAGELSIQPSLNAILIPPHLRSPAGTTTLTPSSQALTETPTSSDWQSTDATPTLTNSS
Chain of Dual specificity protein kinase CLK2 (P49760 whole entry): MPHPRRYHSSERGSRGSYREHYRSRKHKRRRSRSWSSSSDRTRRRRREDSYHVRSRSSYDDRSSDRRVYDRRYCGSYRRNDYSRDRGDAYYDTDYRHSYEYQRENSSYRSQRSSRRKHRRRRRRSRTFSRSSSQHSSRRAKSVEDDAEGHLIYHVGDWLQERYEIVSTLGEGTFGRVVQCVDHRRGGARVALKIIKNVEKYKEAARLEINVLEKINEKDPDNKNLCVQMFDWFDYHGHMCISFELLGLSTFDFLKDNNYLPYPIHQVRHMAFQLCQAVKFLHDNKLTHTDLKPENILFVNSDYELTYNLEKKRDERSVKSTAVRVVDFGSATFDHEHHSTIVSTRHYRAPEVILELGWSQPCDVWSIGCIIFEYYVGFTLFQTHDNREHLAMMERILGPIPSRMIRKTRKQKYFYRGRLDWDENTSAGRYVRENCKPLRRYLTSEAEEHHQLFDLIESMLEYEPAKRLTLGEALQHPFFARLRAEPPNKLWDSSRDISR

half-life [1]: 1.45 h | AUC(0-inf) [2]: 149 ng·h/mL | IC50 [3]: 227 nM | IC50 [4]: 251 nM | MRT [5]: 1.45 h | remaining at 0.5 h [6]: 18.7% | T1/2 [7]: 3.58 h | Papp A→B [8]: 24.9 ×10⁻⁶ cm/s | inhibition [9]: Active | IC50 [11]: 212 nM | half-life [12]: 3.01 h | half-life [13]: 4.19 h | inhibition [14]: > 30% | IC50 [15]: 53 nM | inhibition ([15]; dose 0.03-1 µM): Dose-Dependent Effect | Ratio IC50 [16]: 1 | Cmax [17]: 96.1 ng/mL | bioavailability [20]: 33.3% | clearance [21]: 13.5 mL/min/kg | remaining at 0.5 h [22]: 34.9%
SMILES: CCOC(=O)C1=C(NN2CCN(CC(F)(F)F)CC2)O/C(=C\c2c[nH]c3ncccc23)C1=O [MONZOSERTIB]
Activity [10]: Dose-Dependent Effect | inhibition in vivo at 60 mg/kg [18]: 83% | inhibition in vivo at 120 mg/kg [19]: 83% | Activity [23]: Dose-Dependent Effect
